Experimental data: patent publication US10827753B2, “Compositions and methods for controlling nematodes” (Monsanto Technology LLC, priority 2007, dated 2020)
Where two headings read alike, the source gives them in different places. Marks after values point to notes of the source that are not given here.

Columns and labels:
Meloidogyne incognita = test: M. incognita miniaturized greenhouse assay on cucumber seedlings (root galling); type: in vivo; set-up: key to 1 ppm gall ratings / 1 ppm gall rating: mean of 3 gall ratings: 0=0-5%, 1=6-20%, 2=21-50%, 3=51-100% root galled; settings: for 8 ppm gall ratings: average of triplicate gall rating, scale 0-3 (% root mass galled)
How it was run: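 Compound in acetone/Triton X100 stock (5 mg/mL) diluted into water with 0.015% Triton X100 and applied to sand-planted sprouted cucumber seedlings; inoculated with 500 M. incognita eggs two days after planting. Roots harvested 10–12 days later; galling scored 0–3 by % root mass galled, averaged over triplicates, plus visual root phytotoxicity rating.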

root knot nematode (RKN) = test: RKN greenhouse soil assay on cucumber plants; type: in vivo, Meloidogyne incognita
Description: Cucumber seeds are planted in a sandy soil mixture in two inch square plastic pots. When the cotyledons are fully opened and just as the first leaf begins to emerge, usually 7 days after planting, chemistry for the 7 day treatment is applied. One week later the chemistry for the 0 day treatment is applied. Separate plants are used for each application. The plants are generally in the 1-2 leaf stage now. At least four hours after the chemistry application the pots are inoculated with root knot nematode (RKN) eggs. Plants are rated for galling 14 days after the egg inoculation.
One milligram of chemistry per four pots is equal to one kilogram per hectare of chemical. A standard test uses four replications. For rates above 2 kg/ha, the desired amount of chemical is weighed into a 30 ml vial (example: 8 kg/ha rate=8 mg chemical in 30 ml vial). The chemical is dissolved in 2 ml of appropriate solvent, generally acetone. For rates below 2 kg/ha, 2 milligrams of chemistry is weighed into the vial and dissolved in 2 ml of the solvent. The appropriate amount of chemical concentrate is then pipetted into a separate 30 ml vial and solvent is added to bring the volume to 2 ml (example 0.5 kg/ha=0.5 ml of concentrate+1.5 ml solvent). Each dissolved concentrate is then brought to a total of 20 milliliters using 0.05% Triton X 100 surfactant solution.
Pots to be treated are moist but not saturated. To each of four pots, five milliliters of the appropriate chemical solution is pipetted to the media surface making sure to avoid contact with the base of the plant. Immediately following chemical application, using a mist nozzle, the pot surface is wetted sufficiently to saturate the pot watering in the chemistry. The chemical application is done in the morning.
Nematode eggs, either SCN or RKN, are added to distilled water to create a concentration of 1000 vermiform eggs […]. At least four hours after chemical treatment the eggs are applied to the treated pots plus non-treated check plants. A small hole about 1 cm deep is punched into the pot surface. One milliliter of the nematode egg slurry is pipetted into the hole. Immediately afterwards the hole is gently covered. Watering of the test plants is then restricted to only water as needed to prevent wilt for a period of 24 hours. After the 24 hour restricted watering, normal sub-irrigation watering is done for the duration of the test.

root knot nematode = test: Pre-plant incorporated (PPI) greenhouse test of root knot nematode on cucumber plants; type: in vivo, Meloidogyne incognita; settings: for pest or weed control at 4000 g/ha / pest or weed control at 8000 g/ha / pest or weed control at 2000 g/ha: Meloidogyne incognita, read-out: percent control (galling reduction) relative to the control blank treatment
Description: The PPI test examines the effect of pre-incorporation of compounds in soil and longer aging to simulate in furrow methods of nematicide application in the field. The PPI test exposes compounds to a higher volume of soil and drying which can result in more severe soil binding. Compounds are also aged for longer periods which can lead to more extensive biotic and abiotic degradation further limiting activity.
The chemically treated soil (sandy soil mix) for all treatment days (e.g., 7 days, 14 days, 21 days) treatments is potted into their appropriate pots. On the same day the 7 day treatment pots are seeded. One week later eggs are applied and 14 days after egg application the test is harvested. The 14 day treatments are planted 7 days after the first planting. The 14 day planting and 7 day inoculation happen on the same day. One week later the 14 day treatments are inoculated with eggs. These are harvested 14 days after the inoculation. The 21 day treatments are planted 14 days after the first planting. The 14 day inoculation and 21 day planting are done on the same day. One week later the 21 day plants are inoculated with eggs. The 7 day treatment is harvested the same day as the 21 day inoculation. Fourteen days after inoculation the 21 day plants are harvested.
For each compound a stock is prepared using 4 mg material in 4 ml of acetone. The soil is mixed by placing 80 ml of field soil and 320 ml of sand in a plastic bag and mixing well. The formulation for treatment is done by adding 2.13 ml (8 kg/ha rate), 1.06 ml (4 kg/ha rate) or 0.53 ml (2 kg/ha rate) to a vial and raising it with 10 ml in 0.05%×100. Soil is then treated by adding the entire 10 ml to the 400 ml of mix in the bag. The treated soil is immediately mixed well in the sealed bag to distribute the compound evenly. Approximately 95 ml is used to fill each 2-inch square pot up to the top with some soil compression and flattening. For each compound and for the control treatments 4 pots are filled. All pots are watered until moist but with no run-out through the bottom.
The PPI test simulates 8, 4 and 2 kg/ha rates incorporated 15 cm deep in the field and is equivalent to the 2, 1 and 0.5 kg/ha drench application rates in the standard 2-inch pot cucumber greenhouse assay.

[1] = Acetone 1 mg/kg, standard 10% acetone in 0.05% Triton X 100 formulation
[2] = Radex 1 mg/kg, emulsifiable concentrate, 6.25% active ingredient by weight
[3] = fourteen day pre-plant incorporated, 2 kg/ha rate, test a
[4] = fourteen day pre-plant incorporated, 4 kg/ha rate, test a
[5] = fourteen day pre-plant incorporated, 4 kg/ha rate, test b
[6] = fourteen day pre-plant incorporated, 8 ka/ha rate, test a
[7] = fourteen day pre-plant incorporated, 8 ka/ha rate, test b
[8] = 0 day treatment, 0.05 kg/ha, test a
[9] = 0 day treatment, 0.1 kg/ha, test a
[10] = 0 day treatment, 0.25 kg/ha, test a
[11] = 0 day treatment, 1 kg/ha, test b
[12] = 24 h, twenty one day pre-plant incorporated, 4 kg/ha rate
[13] = 24 h, twenty one day pre-plant incorporated, 8 ka/ha rate

| Compound | 1 ppm gall ratings (Meloidogyne incognita; Table 1B test c) | 1 ppm gall ratings (Meloidogyne incognita; Table 1B test d) | 1 ppm gall ratings (Meloidogyne incognita; Table 1B test e) | percent control (galling reduction) relative to the appropriate control blank treatment (root knot nematode (RKN); [1]) [%] | percent control (galling reduction) relative to the appropriate control blank treatment (root knot nematode (RKN); [2]) [%] | 1 ppm gall ratings (Meloidogyne incognita; Table 1B test a) | 1 ppm gall ratings (Meloidogyne incognita; Table 1B test b) | 1 ppm gall rating (Meloidogyne incognita; Table 1C test a) | 1 ppm gall rating (Meloidogyne incognita; Table 1C test b) | 1 ppm gall rating (Meloidogyne incognita; Table 1D test a) | 8 ppm gall rating (Meloidogyne incognita; Table 1D test a) | 8 ppm gall ratings (Meloidogyne incognita) | percent control (galling reduction) relative to the control blank treatment (root knot nematode (RKN); [8]) | percent control (galling reduction) relative to the control blank treatment (root knot nematode (RKN); [9]) | percent control (galling reduction) relative to the control blank treatment (root knot nematode (RKN); [10]) [%] | percent control (galling reduction) relative to the control blank treatment (root knot nematode (RKN); [11]) | pest or weed control at 4000 g/ha (root knot nematode; [12]) [%] | pest or weed control at 8000 g/ha (root knot nematode; [13]) [%] | pest or weed control at 2000 g/ha (root knot nematode; [3]) [%] | pest or weed control at 4000 g/ha (root knot nematode; [4]) [%] | other results |
| --- | --- | --- | --- | --- | --- | --- | --- | --- | --- | --- | --- | --- | --- | --- | --- | --- | --- | --- | --- | --- | --- |
| CCOP(=O)(NC(C)C)Oc1ccc(SC)c(C)c1 (stereo not shown) [Fenamiphos, fenamiphos, reference compound] | 0^c, 0^d, 0^e (0=0-5%) | 0^c, 0^d, 0^e (0=0-5%) | 0^c, 0^d, 0^e (0=0-5%) | 98 | 99 | – | – | – | – | – | – | – | – | – | – | – | – | – | – | – | percent control (galling reduction) relative to the control blank treatment (root knot nematode; [3]): 88^a percent; percent control (galling reduction) relative to the control blank treatment (root knot nematode; [4]): 99^a percent; percent control (galling reduction) relative to the control blank treatment (root knot nematode; [5]): 100^b percent; percent control (galling reduction) relative to the control blank treatment (root knot nematode; [6]): 100^a percent; percent control (galling reduction) relative to the control blank treatment (root knot nematode; [7]): 100^b percent; percent control (galling reduction) relative to the control blank treatment (root knot nematode; seven day pre-plant incorporated, 4 kg/ha rate): 96%; percent control (galling reduction) relative to the control blank treatment (root knot nematode; seven day pre-plant incorporated, 8 ka/ha rate): 100%; percent control (galling reduction) relative to the control blank treatment (root knot nematode; twenty one day pre-plant incorporated, 4 kg/ha rate): 84%; percent control (galling reduction) relative to the control blank treatment (root knot nematode; twenty one day pre-plant incorporated, 8 ka/ha rate): 99% |
| c1ccc(-c2noc(-c3cccs3)n2)cc1 [compound 1822] | 0.33 | 0 (0=0-5%) | – | 94 | 98 | 0.33 | 0.67 | 0 (0=0-5%) | 0.33 | 1.33^a | 0^a (0=0-5%) | 0 (0=0-5%) | 7^a percent | 47^a percent | 60 | 81% | 82 | 95 | 67 | 97 | percent control (galling reduction) relative to the control blank treatment (root knot nematode (RKN); 0 day treatment, 0.25 kg/ha, test b): 64%; percent control (galling reduction) relative to the control blank treatment (root knot nematode (RKN); 0 day treatment, 1 kg/ha, test a): 89%; percent control (galling reduction) relative to the control blank treatment (root knot nematode (RKN); 7 day treatment, 1 kg/ha, test a): 85%; percent control (galling reduction) relative to the control blank treatment (root knot nematode (RKN); 7 day treatment, 1 kg/ha, test b): 75%; pest or weed control at 4000 g/ha (root knot nematode; 168 h, seven day pre-plant incorporated, 4 kg/ha rate): 99%; pest or weed control at 8000 g/ha (root knot nematode; 168 h, seven day pre-plant incorporated, 8 ka/ha rate): 99%; pest or weed control at 8000 g/ha (root knot nematode; [6]): 100% |
| Brc1ccc(-c2cnc(-c3cccs3)o2)cc1 [compound 4776] | 0.33 | 0.33 | – | – | – | 1 (1=6-20%) | 1 (1=6-20%) | 1 (1=6-20%) | 0.33 | 0^a (0=0-5%) | 0^a (0=0-5%) | 0 (0=0-5%) | – | – | – | — 99^b percent | 50 | 80 | – | – | 1 ppm gall rating (Meloidogyne incognita; Table 1C test c): 1 (1=6-20%) |
| Cc1cc(Cl)ccc1-c1noc(-c2ccco2)n1 [compound 5823] | – | – | 0.33 | – | – | 1.67 | 0.33 | – | – | – | – | – | 53% | 85% | 95 | – | – | – | 85 | 98 | percent control (galling reduction) relative to the control blank treatment (root knot nematode (RKN); 0 day treatment, 0.05 kg/ha, test c): 38%; percent control (galling reduction) relative to the control blank treatment (root knot nematode (RKN); 0 day treatment, 0.1 kg/ha, test c): 91%; percent control (galling reduction) relative to the control blank treatment (root knot nematode (RKN); 0 day treatment, 0.25 kg/ha, test c): 98%; pest or weed control at 4000 g/ha (root knot nematode; [5]): 94%; pest or weed control at 8000 g/ha (root knot nematode; [6]): 100%; pest or weed control at 8000 g/ha (root knot nematode; [7]): 100% |
